What was measured:
the diabetic = conditions: metformin on its own; cited from earlier work
[1] = system: Japanese patients with type 2 diabetes mellitus; conditions: VB 0.2 mg tid
[2] = system: inadequately controlled, metformin-treated type 2 diabetic patients; assay: 12-week randomized, double-blind study of BI 1356 add-on to metformin vs placebo or open label glimepiride; assay type: in vivo, human
Description: Efficacy and safety of BI 1356 (1, 5, or 10 mg qd), a potent and selective dipeptidyl peptidase-4 (DPP-4) inhibitor, was examined in inadequately controlled, metformin-treated (MET, ≧1 g daily) type 2 diabetic patients (T2DM; HbA1c at baseline 7.5-10.0%). Effects were compared to add-on of placebo (PBO) or of open label glimepiride (GLIM; 1 to 3 mg qd) in a 12-week randomized, double-blind study. Antidiabetic medication other than metformin was washed out for 6 weeks (34.7% of the patients).
The primary endpoint was change from baseline in HbA1c, adjusted for prior antidiabetic medication. 333 patients (mean baseline HbA1c 8.3%; fasting plasma glucose [FPG] 185 mg/dL) were randomized to BI 1356, PBO or open-label GLIM. […] Reductions in FPG from baseline to Week 12 with BI 1356 were statistically significant (1 mg, −19 mg/dL; 5 mg, −35 mg/dL; 10 mg, −30 mg/dL). […] For this dose, >80% DPP-4 inhibition at trough in >80% of the patients at week 12 was achieved.
In total, 106 patients (43.1%) experienced adverse events (AEs) with similar incidences across all treatments. Most frequently reported episodes were nasopharyngitis (7.5%), diarrhoea (3.3%), and nausea (3.0%). […] Ten patients (3.7%) experienced serious AEs but none of these events were considered drug-related.

[3] = system: patients with type 2 diabetes mellitus and insufficient glycemic control; assay type: in vivo, human
Description: A multi-center, 24-week, randomized, double-blind, placebo-controlled, parallel group study investigates the efficacy and safety of initial combination therapy with the DPP-4 inhibitor linagliptin (LI) and pioglitazone (PIO). […] Mean baseline characteristics (HbA1c 8.6%; fasting plasma glucose [FPG] 190 mg/dL; age 57.5 yrs; BMI 29.0 kg/m2) are similar between the groups. […] After 24 weeks of treatment, the adjusted mean change in HbA1c for the patients in the LI+ PIO group (full analysis set, last observation carried forward) is −1.06% (standard error (SE)±0.06). The difference in the adjusted mean HbA1c for the LI+ PIO group compared with PBO+PIO is −0.51% (p<0.0001; 95% confidence interval (CI), −0.71, −0.30). […] The proportion of patients that experienced at least one adverse event (AE) is similar for both LI+ PIO and PBO+PIO groups (136, 52.5% vs. 53.1%, respectively). Hypoglycemia is rare, occurring in 3 patients (1.2%) in the LI+ PIO group and none in the PBO+PIO group. All hypoglycemic events are of mild intensity.

[4] = 5 mg LI plus 30 mg PIO qd or 30 mg PIO plus placebo qd, 24 weeks

## CN(C)C(=N)N=C(N)N [metformin]
The diabetic
  average improvement in the HbA1c value: 1.0-1.5%

## OCC(CO)N[C@H]1C[C@](O)(CO)[C@@H](O)[C@H](O)[C@H]1O [VB, voglibose, reference compound]
[1]; 26 weeks
  proportion of patients whose HbA1c level lowered by ≧0.5%: 37.7%
[1]; after 26 weeks
  proportion of patients achieving HbA1c<7.0%: 22.2%

## CCC1=C(C)CN(C(=O)NCCc2ccc(S(=O)(=O)NC(=O)N[C@H]3CC[C@H](C)CC3)cc2)C1=O [GLIM, glimepiride, reference compound]
[2]; GLIM 1 to 3 mg qd add-on to metformin, 12 weeks
  drug-related hypoglycaemia, number of patients: 3 patients
[2]; open label GLIM 1 to 3 mg qd add-on to metformin, Week 12
  mean PBO corrected reduction in HbA1c: −0.90%

## CCc1ccc(CCOc2ccc(CC3SC(=O)NC3=O)cc2)nc1 (stereo not drawn) [PBO+PIO, pioglitazone]
[3]; [4]
  patients achieving a reduction in HbA1c of ≧0.5%: 50.8%
  patients achieving a target HbA1c of <7%: 30.5%
[3]; in vivo
  hypoglycemia, number of patients: none
  proportion of patients that experienced at least one adverse event (AE): 53.1%

— patent US9457029B2, “Treatment of genotyped diabetic patients with DPP-IV inhibitors such as linagliptin” (Boehringer Ingelheim International GmbH, priority 2009, dated 2016)
